Measurements as given in ChEMBL document CHEMBL5505985 (Eur J Med Chem, 2024).
Activity calls are given as the source filed them. No cut-off for these calls is given here.

Experiments:
RAW264.7 [1] = assay: Inhibition of LPS-induced NFkappaB activation in mouse RAW264.7 cells assessed as reduction in NF-kappaB phosphorylation level preincubated for 1 hr followed by LPS stimulation and measured after 30 mins by Westernblot analysis; assay type: cell-based; conditions: dose 10-30 µM, time 1.5 hrs
Mus musculus [2] = assay: Antiinflammatory activity against DSS-induced ulcerative colitis BALB/c mouse assessed as reduction in DAI score at 0.25 mg/kg, po for 5 days and measured after 12 days; assay type: functional, organism-based; conditions: time 12.0 day
RAW264.7 [3] = assay: Inhibition of MAPK signalling pathway in LPS induced mouse RAW264.7 cells assessed as effect on JNK phosphorylation level at 10 to 30 uM preincubated for 1 hr followed by LPS stimulation and measured after 30 mins by Westernblot analysis; assay type: cell-based; conditions: dose 10-30 µM, time 1.5 hrs
[4] = target: NACHT, LRR and PYD domains-containing protein 3 (Mus musculus) (UniProt Q8R4B8); assay: Inhibition of NLRP3 inflammasome in LPS-induced mouse RAW264.7 cells assessed as downregulation of caspase-1 activation primed with LPS for 4.5 hs followed by incubation with compound for 1 hr and later stimulation with ATP for 30 mins by Western blot analysis; assay type: cell-based; conditions: dose 10-30 µM, time 1.5 hrs
NACHT, LRR and PYD domains-containing protein 3 (Mus musculus), sequence (Q8R4B8 whole entry, the tested form may be a part): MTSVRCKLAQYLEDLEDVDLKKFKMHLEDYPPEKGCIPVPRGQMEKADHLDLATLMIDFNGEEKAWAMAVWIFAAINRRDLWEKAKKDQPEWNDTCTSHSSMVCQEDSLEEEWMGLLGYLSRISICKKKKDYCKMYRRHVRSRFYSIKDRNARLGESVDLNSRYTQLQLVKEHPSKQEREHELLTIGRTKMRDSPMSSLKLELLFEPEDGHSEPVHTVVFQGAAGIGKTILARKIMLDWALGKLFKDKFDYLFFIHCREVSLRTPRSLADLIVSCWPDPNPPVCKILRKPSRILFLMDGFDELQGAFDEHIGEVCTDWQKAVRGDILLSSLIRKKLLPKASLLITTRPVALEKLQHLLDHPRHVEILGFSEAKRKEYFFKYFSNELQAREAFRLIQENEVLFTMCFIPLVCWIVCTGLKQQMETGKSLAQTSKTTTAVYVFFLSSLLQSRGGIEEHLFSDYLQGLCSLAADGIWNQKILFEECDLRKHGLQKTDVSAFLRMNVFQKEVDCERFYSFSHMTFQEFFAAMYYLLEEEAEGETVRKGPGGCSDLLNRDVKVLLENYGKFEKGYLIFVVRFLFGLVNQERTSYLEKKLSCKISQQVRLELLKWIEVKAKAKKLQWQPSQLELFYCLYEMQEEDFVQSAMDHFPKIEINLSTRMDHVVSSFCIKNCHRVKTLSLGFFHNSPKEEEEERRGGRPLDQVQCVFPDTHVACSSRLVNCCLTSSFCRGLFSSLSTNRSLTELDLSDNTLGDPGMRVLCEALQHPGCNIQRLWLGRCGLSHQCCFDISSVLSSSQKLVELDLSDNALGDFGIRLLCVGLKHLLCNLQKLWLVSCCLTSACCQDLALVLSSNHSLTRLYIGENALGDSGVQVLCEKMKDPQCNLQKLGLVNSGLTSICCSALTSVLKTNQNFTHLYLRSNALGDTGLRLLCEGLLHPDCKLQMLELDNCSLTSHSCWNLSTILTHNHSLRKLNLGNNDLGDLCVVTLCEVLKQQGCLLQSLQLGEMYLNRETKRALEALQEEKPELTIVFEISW

Mus musculus [5] = assay: Antiinflammatory activity against DSS-induced ulcerative colitis BALB/c mouse assessed as amelioration of leucocyte infiltration at 0.25 mg/kg, po for 5 days and measured after 12 days; assay type: functional, organism-based; conditions: time 12.0 day
Mus musculus [6] = assay: Antiinflammatory activity against DSS-induced ulcerative colitis BALB/c mouse assessed as suppression of weight loss at 0.25 mg/kg, po for 5 days and measured on day 10; assay type: functional, organism-based; conditions: time 10.0 day
[7] = target: T1, Prostaglandin G/H synthase 2 (Homo sapiens, UniProt P35354); assay: Inhibition of human recombinant COX-2 using arachidonic acid as substrate pretreated for 5 mins followed by substrate addition and measured after 2 mins by fluorescence based analysis
T1 sequence (P35354 whole entry): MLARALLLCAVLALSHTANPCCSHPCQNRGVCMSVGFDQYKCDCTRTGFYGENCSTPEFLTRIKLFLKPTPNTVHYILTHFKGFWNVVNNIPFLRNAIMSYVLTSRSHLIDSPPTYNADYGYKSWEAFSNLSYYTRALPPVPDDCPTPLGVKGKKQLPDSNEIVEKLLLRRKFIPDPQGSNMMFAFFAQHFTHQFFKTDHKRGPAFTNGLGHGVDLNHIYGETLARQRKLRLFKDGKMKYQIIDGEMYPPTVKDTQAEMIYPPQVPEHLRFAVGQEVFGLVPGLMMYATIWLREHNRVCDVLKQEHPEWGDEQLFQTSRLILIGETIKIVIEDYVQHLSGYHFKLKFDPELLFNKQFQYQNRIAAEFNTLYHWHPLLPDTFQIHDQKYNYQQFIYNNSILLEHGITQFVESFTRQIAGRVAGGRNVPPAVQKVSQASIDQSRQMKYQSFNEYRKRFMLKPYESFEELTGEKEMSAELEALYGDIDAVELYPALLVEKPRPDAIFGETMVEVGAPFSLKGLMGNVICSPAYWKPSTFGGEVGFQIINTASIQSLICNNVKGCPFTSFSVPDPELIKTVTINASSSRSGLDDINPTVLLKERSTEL

RAW264.7 [8] = assay: Antiinflammatory activity in LPS-induced mouse RAW264.7 cells assessed as inhibition of NO secretion preincubated for 1 hr followed by LPS stimulation and measured after 24 hrs by Griess assay; assay type: functional, cell-based; conditions: dose 2-30 µM, time 25.0 hrs
RAW264.7 [9] = assay: Cytotoxicity activity mouse RAW264.7 cells assessed as reduction in cell viability at 10 uM incubated for 48 hrs by MTT assay; assay type: toxicity, cell-based; conditions: raw264.7, 48 h
[10] = Selectivity index, ratio of IC50 for ovine COX-1 to IC50 for human COX-2
RAW264.7 [11] = assay: Antiinflammatory activity in LPS-induced mouse RAW264.7 cells assessed as reduction in iNOS protien level at 10 uM preincubated for 1 hr followed by LPS stimulation and measured after 24 hrs […]; assay type: functional, cell-based; conditions: time 25.0 hrs
RAW264.7 [12] = assay: Antiinflammatory activity in LPS-induced mouse RAW264.7 cells assessed as downregulation of IL-1 beta secretion preincubated for 1 hr followed by LPS stimulation and measured after 24 hrs by ELISA method; assay type: functional, cell-based; conditions: dose 2-30 µM, time 25.0 hrs
RAW264.7 [13] = assay: Antiinflammatory activity in LPS-induced mouse RAW264.7 cells assessed as downregulation of TNF-alpha secretion preincubated for 1 hr followed by LPS stimulation and measured after 3 hrs by ELISA method; assay type: functional, cell-based; conditions: dose 2-30 µM, time 4.0 hrs
Mus musculus [14] = assay: Protection against DSS-induced ulcerative colitis BALB/c mouse assessed as recovery of blood sinusoids at 0.25 mg/kg, po for 5 days and measured after 12 days by H and E staining based analysis; assay type: functional, organism-based; conditions: time 12.0 day
RAW264.7 [15] = assay: Antiinflammatory activity in LPS-induced mouse RAW264.7 cells assessed as inhibition of ROS secretion preincubated for 1 hr followed by LPS stimulation and measured after 24 hrs by fluorescence based analysis; assay type: functional, cell-based; conditions: dose 2-30 µM, time 25.0 hrs
[16] = target: NACHT, LRR and PYD domains-containing protein 3 (Mus musculus) (UniProt Q8R4B8); assay: Inhibition of NLRP3 inflammasome in LPS-induced mouse RAW264.7 cells assessed as inhibition of ASC expression at 10 to 30 uM primed with LPS for 4.5 hs followed by incubation with compound for 1 hr and later stimulation with ATP for 30 mins by Western blot analysis; assay type: cell-based; conditions: dose 10-30 µM, time 1.5 hrs
Mus musculus [17] = assay: Antiinflammatory activity against DSS-induced ulcerative colitis BALB/c mouse assessed as amelioration of atrophied blood sinusoids at 0.25 mg/kg, po for 5 days and measured after 12 days; assay type: functional, organism-based; conditions: time 12.0 day
Mus musculus [18] = assay: Antiinflammatory activity against DSS-induced ulcerative colitis BALB/c mouse assessed as amelioration of goblet cell depletion at 0.25 mg/kg, po for 5 days and measured after 12 days; assay type: functional, organism-based; conditions: time 12.0 day
RAW264.7 [19] = assay: Inhibition of LPS-induced NFkappaB activation in mouse RAW264.7 cells assessed as inhibition of IKKalpha phosphorylation level preincubated for 1 hr followed by LPS stimulation and measured after 30 mins by Westernblot analysis; assay type: cell-based; conditions: dose 10-30 µM, time 1.5 hrs
RAW264.7 [20] = assay: Antiinflammatory activity in LPS-induced mouse RAW264.7 cells assessed as suppression of PGE2 secretion at 2 to 30 uM preincubated for 1 hr followed by LPS stimulation and measured after 24 hrs by ELISA method; assay type: functional, cell-based; conditions: dose 2-30 µM, time 25.0 hrs

With `COc1ccccc1C1=Nn2c(Cc3ccccc3Nc3c(Cl)cccc3Cl)nnc2SC1` the inhibition (RAW264.7 [1]) was “Dose-Dependent Effect”, the Activity (Mus musculus [2]) was “Active” and the inhibition (RAW264.7 [3]) was “inactive”. The inhibition [4] was “Dose-Dependent Effect”, the Activity (Mus musculus [5]) was “Active” and the Activity (Mus musculus [6]) was “Active”. The IC50 [7] was 1530 nM, the Activity (RAW264.7 [8]) was “Dose-Dependent Effect” and the Activity (RAW264.7 [9]) was “Non-Toxic”. The Ratio IC50 [10] was 17.2, the Activity (RAW264.7 [11]) was “Active” and the Activity (RAW264.7 [12]) was “Dose-Dependent Effect”. For the same compound, the Activity (RAW264.7 [13]) was “Dose-Dependent Effect”, the Activity (Mus musculus [14]) was “Active” and the Activity (RAW264.7 [15]) was “Dose-Dependent Effect”. The inhibition [16] was “Active”, the Activity (Mus musculus [17]) was “Active” and the Activity (Mus musculus [18]) was “Active”. The inhibition (RAW264.7 [19]) was “Dose-Dependent Effect” and the Activity (RAW264.7 [20]) was “Active”.
